Legend:
[1] = target: T1, calpain (calpain-1) in the kit (Homo sapiens, UniProt P07384); experiment: Calpain Inhibitory Activity Measurement 1 (SensorLyte 520 Calpain Activity Assay Kit, 5-FAM/QXL 520 substrate); assay type: biochemical; conditions: inhibitor 0.062 μM; 5-FAM/QXL 520 5.0 μM; 37° C., 25 minutes; compared with SNJ-1945
T1 construct: purchased AnaSpec, Inc. AS-72149
T1 sequence (P07384 1-714): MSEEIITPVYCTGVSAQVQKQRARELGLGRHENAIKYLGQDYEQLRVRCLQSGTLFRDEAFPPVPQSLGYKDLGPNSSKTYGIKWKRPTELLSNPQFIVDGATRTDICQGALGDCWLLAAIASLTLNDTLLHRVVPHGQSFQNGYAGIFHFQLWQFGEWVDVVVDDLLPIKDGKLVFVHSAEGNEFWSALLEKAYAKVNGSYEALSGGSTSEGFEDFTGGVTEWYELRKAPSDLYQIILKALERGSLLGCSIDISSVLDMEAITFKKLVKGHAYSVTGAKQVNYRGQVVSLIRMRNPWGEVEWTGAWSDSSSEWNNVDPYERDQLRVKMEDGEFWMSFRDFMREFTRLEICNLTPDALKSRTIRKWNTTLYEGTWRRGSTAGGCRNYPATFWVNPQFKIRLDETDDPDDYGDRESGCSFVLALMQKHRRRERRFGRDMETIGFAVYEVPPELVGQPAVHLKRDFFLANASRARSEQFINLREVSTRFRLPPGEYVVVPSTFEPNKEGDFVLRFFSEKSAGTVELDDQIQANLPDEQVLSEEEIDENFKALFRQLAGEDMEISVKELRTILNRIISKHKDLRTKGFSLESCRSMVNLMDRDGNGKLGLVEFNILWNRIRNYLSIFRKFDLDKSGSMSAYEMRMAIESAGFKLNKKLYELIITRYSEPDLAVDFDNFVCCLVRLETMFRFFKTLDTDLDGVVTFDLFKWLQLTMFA
T1 sequence (P04632 1-268 partner): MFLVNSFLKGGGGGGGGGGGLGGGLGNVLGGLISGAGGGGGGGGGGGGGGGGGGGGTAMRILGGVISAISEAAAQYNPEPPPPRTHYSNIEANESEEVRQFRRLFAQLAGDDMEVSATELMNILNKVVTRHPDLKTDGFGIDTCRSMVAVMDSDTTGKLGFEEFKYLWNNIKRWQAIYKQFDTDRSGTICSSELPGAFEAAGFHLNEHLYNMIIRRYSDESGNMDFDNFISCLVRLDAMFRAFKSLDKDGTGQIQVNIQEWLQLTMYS
Experimental: Calpain inhibitory activity was measured with SensorLyte™ 520 Calpain Activity Asay Kit (AnaSpec, Inc., AS-72149) in conformity with a method described in its assay protocol. SNJ-1945 (Medkoo Biosciences, Inc., Cat #564979), Compound 13, Compound 14, Compound 18, or Compound 19 serving as a calpain inhibitor and a calpain (calpain-1) in the kit were mixed with each other in Assay Buffer, and the mixture was incubated at 37° C. for 3 minutes. 5-FAM/QXL™ 520 serving as a calpain enzyme substrate was added to the incubated product to perform an enzyme reaction by the calpain at 37° C. for 25 minutes (the final concentration of each inhibitor was 0.062 μM, and the final concentration of 5-FAM/QXL™ 520 was 5.0 μM). In the enzyme reaction, the enzyme substrate is cleaved by the calpain to emit fluorescence. The emission fluorescence intensity of the substrate was detected with a plate reader (Infinite™ 200 PRO, TECAN) (at an excitation wavelength of 490 nm and a fluorescence wavelength of 520 nm). SNJ-1945 is a known calpain inhibitor, and has the following structure.

[2] = target: T2, calpain-1 from human erythrocytes (Homo sapiens, UniProt P07384); experiment: Calpain Inhibitory Activity Measurement 2 (HMRG fluorescent probe, various inhibitor concentrations, IC50); assay type: biochemical; conditions: fluorescent probe 5 μM; calpain-1 6.48 μg/mL; 37° C., 30 minutes; Tris buffer pH 7.4
T2 construct: calpain-1 from human erythrocytes; purchased Merck Millipore 208713; host or cells: human erythrocytes
T2 sequence (P07384 1-714): T1 sequence (P07384 1-714)
T2 sequence (P04632 1-268 partner): T1 sequence (P04632 1-268 partner)
Experimental: Calpain-1 (calpain-1 from human erythrocytes, Cat. No. 208713, Merck Millipore) and a DMSO solution of a HMRG fluorescent probe for detecting calpain activity were added to each of 50 mM Tris buffers (pH: 7.4, 5 mM CaCl2), 2 mM DTE, 2 mM EGTA) containing various concentrations of SNJ-1945 or Compound 13 to perform fluorescence assays (the final concentration of the fluorescent probe was 5 μM, and the final concentration of calpain-1 was 6.48 μg/mL). […] The results are shown in FIG. 2 (concentrations shown in the figure each represent the final concentration of SNJ-1945 or Compound 13 in each assay). The following compound was used as the probe for detecting calpain activity.
An IC50 was determined on the basis of a graph produced with data analysis software “KaleidaGraph”. As a result, the IC50 of Compound 13 was 0.010 μM, and the IC50 of SNJ-1945 was 0.040 μM.

| SMILES | enzyme inhibitory activity on the calpain (fluorescence increase amount, FIG. 1) [1] | IC50 [2] |
| --- | --- | --- |
| COCCOCCOC(=O)N[C@@H](CC(C)C)C(=O)N[C@@H](Cc1ccccc1)C(=O)C(=O)NC1CC1 [SNJ-1945, reference compound] | inhibited | 0.04 µM |
| C#CCOCC(=O)N[C@@H](CC(C)C)C(=O)N[C@@H](Cc1ccccc1)C(=O)C(=O)NC1CC1 [Compound 18] | stronger than that of SNJ-1945 |  |
| COC(C)(C)C(=O)N[C@@H](CC(C)C)C(=O)N[C@@H](Cc1ccccc1)C(=O)C(=O)NC1CC1 [Compound 14] | stronger than that of SNJ-1945 |  |

Now from value to compound:

| enzyme inhibitory activity on the calpain (fluorescence increase amount, FIG. 1) [1] | IC50 [2] | SMILES |
| --- | --- | --- |
| comparable to that of SNJ-1945 |  | COCCC(=O)N[C@@H](CC(C)C)C(=O)N[C@@H](Cc1ccccc1)C(=O)C(=O)NC1CC1 [Compound 19, reference compound] |
| stronger than that of SNJ-1945 | 0.01 µM | COCC(=O)N[C@@H](CC(C)C)C(=O)N[C@@H](Cc1ccccc1)C(=O)C(=O)NC1CC1 [Compound 13] |

Source: patent publication US20250361202A1, “CALPAIN INHIBITOR” (GORYO CHEMICAL, INC., priority 2022, published 2025)
